Measured values published in ChEMBL document CHEMBL1121734, “New synthesis of N-[4-[[(2-amino-4(3H)-oxopyrido[3,2-d]pyrimidin-6-yl)methyl]amino]benzoyl]-L-glutamic acid (8-deazafolic acid) and the preparation of some 5,6,7,8-tetrahydro derivatives” (1981).

These molecules were tested against T1, Dihydrofolate reductase (Bos taurus) (UniProt P00376). Conditions: not given.
T1 sequence (whole entry): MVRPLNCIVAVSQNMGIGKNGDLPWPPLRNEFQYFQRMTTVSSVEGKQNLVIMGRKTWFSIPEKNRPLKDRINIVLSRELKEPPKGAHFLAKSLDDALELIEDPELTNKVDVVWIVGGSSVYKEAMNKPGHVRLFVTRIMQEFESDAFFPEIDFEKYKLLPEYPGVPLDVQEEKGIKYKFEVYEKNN
With `Nc1nc(O)c2c(n1)CCC1CN(c3ccc(C(=O)NC(CCC(=O)O)C(=O)O)cc3)C=[N+]21` (configuration not stated) the ID50 was 4.6 µM.

The molecules below were run on Epidermoid carcinoma cell line (assay: Concentration required for inhibition of colony formation (cytotoxicity) against human epidermoid carcinoma cell number 2). Conditions: read-out: ED50 (the source's name).
Type: functional
Molecule `Nc1nc(O)c2nc(C(=O)Nc3ccc(C(=O)NC(CCC(=O)O)C(=O)O)cc3)ccc2n1` (configuration not stated) has an EC50 of 100 µM. With `Nc1nc(O)c2c(n1)CCC1CN(c3ccc(C(=O)NC(CCC(=O)O)C(=O)O)cc3)C=[N+]21` (configuration not stated) the EC50 was 8 µM. `Nc1nc(O)c2nc(CN(C=O)c3ccc(C(=O)NC(CCC(=O)O)C(=O)O)cc3)ccc2n1` (configuration not stated) was tested, and the EC50 was 32 µM. Molecule `Nc1nc(O)c2c(n1)CCC(CN(C=O)c1ccc(C(=O)NC(CCC(=O)O)C(=O)O)cc1)N2` (configuration not stated) has an EC50 of 28 µM. `Nc1nc(O)c2nc(CNc3ccc(C(=O)NC(CCC(=O)O)C(=O)O)cc3)ccc2n1` (configuration not stated) gave an EC50 of 23 µM. `CN(Cc1cnc2nc(N)nc(N)c2n1)c1ccc(C(=O)N[C@@H](CCC(=O)O)C(=O)O)cc1` [METHOTREXATE] was tested, and the EC50 was 0.001 µM.
